Measurements: patent publication US12246010B2, “Formulations of tegavivint and related compounds” (Iterion Therapeutics, Inc., priority 2018, dated 2025)
“And” between values parts separate entries of the source, which are not always exact repeats. Equal values may be shown once. Read-outs that look alike come from different tables or passages of the source.

Experiments:
[1] = Pharmacokinetics after slow intravenous bolus in female Sprague-Dawley rats; format: in vivo; conditions: 10 mg/kg slow intravenous bolus; for half-life: iv, 10 mg/kg
Description: The objective of this study was to investigate the pharmacokinetics of tegavivint following a single intravenous slow bolus administration of tegavivint to female Sprague-Dawley rats.
Dose Preparation and Administration The stock formulation (25 mg/mL) was provided. Accurately, 600 μL of dose formulation (Stock, 25 mg/mL) was transferred to labeled glass container. To this, 2.4 mL of 5% dextrose solution was added, vortex mixed and sonicated to obtain homogeneous suspension of 5 mg/mL strength. Animals were dosed underfed condition. Rats were administered a single dose of 10 mg/kg of tegavivint by slow intravenous bolus (over 1.5 min) jugular vein catheter using 1 mL BD syringe guided with 23 G blunt needle at a dose volume of 2 mL/kg. Syringes used for dosing were weighed before and after dose administration in order to calculate the actual dose administered.
Sample Collection and Processing Blood samples were collected at 0.083, 0.25, 0.5, 1, 2, 4, 6, 8, 12 and 24 h post dose. At each time point, approximately, 0.25 mL of blood was withdrawn from jugular vein of the cannulated rat and transferred to a labeled microfuge tube containing 200 mM K2EDTA (20 μL per mL of blood). Following sampling, equal volume of heparinized saline was replaced into the catheter. The blood samples were kept on wet ice at all times immediately after collection and the plasma was separated by centrifugation at 5000 g for 5 minutes at 4±2° C. The plasma samples were separated within 1 h of scheduled time and stored below −60° C. until bioanalysis.
Bioanalysis Bioanalysis was performed using fit-for-purpose LC-MS/MS method for the quantification of BC2059 in rat plasma samples. The calibration curve (CC) for the method consisted of at least 6 non-zero calibration standards along with a blank and blank with internal standard samples with a lower limit of quantification (LLOQ) of 0.050 μg/mL. Study samples were analyzed along with three sets of quality control samples (9 QC samples; low, medium and high QC samples in triplicate).
Pharmacokinetic Data Analysis The pharmacokinetic parameters for tegavivint were calculated using the non-compartmental analysis tool ([…]) of the validated Phoenix® WinNonlin® software (version 6.3). The area under the concentration time curve (AUClast and AUCinf) was calculated by linear trapezoidal rule. The CO (back extrapolated concentration at time zero) was estimated following intravenous bolus dose administration by back-extrapolating the first two concentration values. The total plasma clearance (CL) and volume of distribution at steady-state (Vss) were estimated values. The elimination rate constant value (k) was calculated by linear regression of the log-linear terminal phase of the concentration-time profile using at least 3 declining concentrations in terminal phase with a correlation coefficient of >0.8. The terminal half-life value (T½) was calculated using the equation 0.693/k. The alpha and beta half-lifes were calculated and reported.

[2] = tested on: bleomycin-induced idiopathic pulmonary fibrosis (IPF); experiment: Bleomycin-induced IPF mouse model: body weight; format: in vivo, C57BL/6 male mice
Description: (§1) The purpose of this experiment was to investigate tegavivint nanosuspension in a mouse model of bleomycin-induced idiopathic pulmonary fibrosis (IPF). Test articles were as follows:
Tegavivint (BC2059) in a nano-milled suspension 25 mg/mL in 0.625% poloxamer 188 and 10% sorbitol. The test article was refrigerated at about 4° C.
Nebulizing equipment was Altera ultrasonic eRapid machine nebulizer (model #678G1002).
Animals were 8-12 week old C57BL/6 male mice (Jackson Lab, Bar Harbor, ME).
(§2) Murine model of pulmonary fibrosis was induced by intratracheally (IT) injected bleomycin (APP Pharmaceuticals, Schaumburg, IL). One dose of 0.025 U bleomycin dissolved in 50 microliters of Saline 0.9%, or PBS as control was administered to each animal on day 0.
(§3) Tegavivint nanosuspension was applied to Group 3 in the form of aerosols, through the method of whole body exposure. The mice were placed inside a plastic box. This box was sealed and connected by one of its sides to the outlet of the nebulizer device, and on the other side to a system of closed water. The whole procedure was carried out inside the fume hood of the animal room. In each treatment session, 5 ml of 25 mg/ml Tegavivint (125 mg) was nebulized over 15 min to each group of 4-5 mice in the chamber. […]
The body weight of animals was recorded on Days 0, 5, 8, 12, 16, 19, and 21.

[3] = tested on: bleomycin-induced idiopathic pulmonary fibrosis (IPF); experiment: Bleomycin-induced IPF mouse model: total lung collagen content (Hydroxyproline Assay); format: in vivo, C57BL/6 male mice
Description: as §1, §2, §3
On Day 21 all animals were sacrificed and lungs were harvested. Total lung collagen content was evaluated using the Hydroxyproline Assay as previously described (Morales-Nebreda L, et al. AJRCMB 2015). […] The resulting pellet was resuspended in 1 ml of 0.5 M NaOH and Sirius red staining was quantified spectrophotometrically (540 nm) using a colorimetric plate reader (Bio-Rad, Hercules, CA).

[4] = Aerosol particle size distribution by cascade impactor; format: physicochemical; conditions: Covaris and Ball Mill (60 min); 0.1% Tween 80; 15.06 mg/mL; Hospitak
Description: Particle size distribution (PSD) of the test article was measured at the breathing zone using an In Tox, mercer style cascade impactor.
Particle size for test atmospheres was measured using an In-Tox Cascade impactor for suspensions prepared with 0.1% Tween 80 in ultrapure water, and the sponsor provided poloxamer suspension using a compressed air nebulizer.

[5] = female, Sprague-Dawley, plasma, rat

CL lower than normal rat liver blood flow of 55 mL/min/kg [1]: about 5.5 fold | AUC(0-inf) [1, 5]: 17200 ng·h/mL | AUC(0-t) [1, 5]: 14600 ng·h/mL | MRT last [1, 5]: 4.07 h | C0 ([1]; female, Sprague-Dawley, plasma, rat, back extrapolated): 62.2 µg/mL | clearance ([1]; female, Sprague-Dawley, plasma, rat, mean, n=4): 9.92 mL/min/kg | Vd ([1]; female, Sprague-Dawley, plasma, rat, mean, n=4, read-out: Vss): 6.54 L/kg | half-life ([1]; female, Sprague-Dawley, rat, plasma, regression points 0.5, 1 and 2 h, read-out: T1/2 Alpha (converted)): 0.546 h | half-life ([1]; female, Sprague-Dawley, rat, plasma, regression points 6, 8, 12 and 24 h, read-out: T1/2 Beta (converted)): 13.8 h | Vss greater than normal body water of 0.7 L/kg ([1]; rat): ~9.34 fold | GSD [4]: 2.21 | MMAD [4]: 1.26 µm
Structure (SMILES): C[C@@H]1C[C@H](C)CN(S(=O)(=O)c2ccc3c(c2)C(=NO)c2cc(S(=O)(=O)N4C[C@H](C)C[C@H](C)C4)ccc2C3=NO)C1 [BC2059, tegavivint]
effect on body weight loss caused by bleomycin ([2]; Group 3, inhaled): reversed the body weight loss | Change in body weight (%) ([2]; Group 3: IT bleomycin Day 0, 5 ml of 25 mg/ml tegavivint aerosol BID Day 5-21, individual animals): −2.83% and 5.2% and 7.3% (2×) and 7.9% | effect on total lung collagen content after bleomycin injury ([3]; Group 3, inhaled): reversed this change | Hydroxyproline ([3]; Group 3: IT bleomycin Day 0, 5 ml of 25 mg/ml tegavivint aerosol BID Day 5-21, Day 21, individual animals): 70.016 μg/half lung and 39.44 μg/half lung and 45.68 μg/half lung and 58.784 μg/half lung and 64.296 μg/half lung
